Test results published in paper PMC11127902, “Rescuing tri-heteromeric NMDA receptor function: the potential of pregnenolone-sulfate in loss-of-function GRIN2B variants” (Cellular and Molecular Life Sciences: CMLS, 2024).

Experiments:
GluN2B di-heteromers = system: GluN2B di-heteromers; set-up: method as in PMID 29682629; settings: 2.5 μM ifenprodil; cited from earlier work
[1] = system: tri-heteromers (GluN2A/GluN2B); set-up: method as in PMID 29682629; settings: 2.5 μM ifenprodil; cited from earlier work
[2] = system: GluN2A-containing di-heteromers; set-up: method as in PMID 29682629; settings: 2.5 μM ifenprodil; cited from earlier work
all NMDAR-subtypes = system: all NMDAR-subtypes; set-up: method as in PMID 24174662; settings: cited from earlier work
GABAA receptors = system: GABAA receptors; set-up: method as in PMID 24174662; settings: cited from earlier work
[3] = system: synaptic NMDARs in cultured hippocampal neurons; assay: Fraction of extrasynaptic NMDARs with MK-801, hippocampal neurons; assay type: cell-based, rat; settings: 1 μM MK-801 10 min, 100 μM NMDA
Description: Evaluation of the fraction of extrasynaptic NMDARs was done as previously described. Briefly, neurons were initially perfused with extracellular solution (see above) supplemented with 100 μM of NMDA to assess the total (synaptic and extrasynaptic) NMDAR-dependent current. Subsequently, the 100 μM of NMDA was thoroughly washed for 2 min (to refrain from activation of NMDAR by remaining NMDA), then neurons were perfused with the extracellular solution supplemented with 1 μM MK-801 for 10 min to exclusively block synaptic receptors (which are activated by action-potential independent miniature neurotransmission). Extrasynaptic NMDAR-dependent currents were then measured by washing the cells from excess MK-801 for 2 min followed by a second application of 100 μM NMDA. Evaluation of the fraction of the extrasynaptic NMDARs was done by dividing the maximal current remaining after MK-801 application by the current obtained before the MK-801 treatment.

[4] = system: GluN2B-G689C and GluN2B-G689S variant receptors; set-up: method as in PMID 34212862, PMID 37369021; settings: cited from earlier work
[5] = biological target: T1, Mixed di-heteromeric GluN2B-wt/GluN2B-G689S (Rattus norvegicus, UniProt P35439+Q00960, G689S); assay: TEVC in Xenopus oocytes; assay type: cell-based; settings: 5 mM glutamate
T1 construct: expressed in transfected cells; host or cells: Xenopus laevis oocytes, mRNA injection
Description: (§1) Aliquots were thawed before each experiment.

[6] = biological target: T2, Purely di-heteromeric GluN2B-wt (GluN1-1a-wt + GluN2B-wt-C1/C2) (Rattus norvegicus, UniProt P35439+Q00959+Q00960, A876H/F846L/G856D/H848F/K857R/M851T/M860L/Q845K/V861L); assay: TEVC in Xenopus oocytes; assay type: cell-based; settings: 5 mM glutamate
T2 construct: expressed in transfected cells; host or cells: Xenopus laevis oocytes, mRNA injection
Description: as §1

[7] = biological target: T3, Tri-heteromeric GluN2A-wt/GluN2B-G689C (Rattus norvegicus, UniProt P35439+Q00959+Q00960, A876H/F846L/G689C/G856D/H848F/K857R/M851T/M860L/Q845K/V861L); assay type: cell-based; settings: 5 mM glutamate
T3 construct: expressed in transfected cells; host or cells: Xenopus laevis oocytes, mRNA injection
Description: as §1

[8] = biological target: T4, Tri-heteromeric GluN2A-wt/GluN2B-G689S (Rattus norvegicus, UniProt P35439+Q00959+Q00960, A876H/F846L/G689S/G856D/H848F/K857R/M851T/M860L/Q845K/V861L); assay type: cell-based; settings: 5 mM glutamate
T4 construct: expressed in transfected cells; host or cells: Xenopus laevis oocytes, mRNA injection
Description: as §1

[9] = biological target: T5, GluN2A-wt-containing tri-heteromeric receptors (GluN2B wt or variants) (Rattus norvegicus, UniProt P35439+Q00959+Q00960, A876H/F846L/G856D/H848F/K857R/M851T/M860L/Q845K/V861L); assay: TEVC in Xenopus oocytes, all tri-heteromers; assay type: cell-based
T5 construct: expressed in transfected cells; host or cells: Xenopus laevis oocytes, mRNA injection
Description: as §1

[10] = system: non-tagged purely di-heteromeric GluN2B-G689C; settings: purely variant di-heteromers, previous observations; cited from earlier work
[11] = system: non-tagged purely di-heteromeric GluN2B-G689S; settings: purely variant di-heteromers, previous observations; cited from earlier work
[12] = biological target: Mixed di-heteromeric GluN2B-wt/GluN2B-G689C (Rattus norvegicus, UniProt P35439+Q00960, G689C); assay: TEVC in Xenopus oocytes; settings: 5 mM glutamate
Description: (§2) Two electrode voltage clamp (TEVC) recordings were carried out 24–72 h after mRNA injections, as previously described [17, 37]. We use a commercial amplifier (Warner Instruments, USA) and Digitizer (Digidata-1550B; Molecular Devices, USA), controlled by the pClamp10 software (Molecular Devices, USA). Electrode were made by pulling glass capillaries (Narishige, Japan) filled with 3 M KCl, into which we inserted chlorinated silver wires. […] For hERG channel recordings, oocytes were clamped at (− 60) mV for 1 s, followed by a voltage jump to 20 mV for 4 s, and an additional voltage jump to (− 50) mV for 6 s and return to baseline voltage (see Supplementary. 6f), as previously described [53].
(§3) When assessing potentiation by PS, all other solutions also included equal amounts of the DMSO carrier (0.2%).
Electrophysiology data were analyzed by Clampfit 11.2 (Molecular Devices, USA), plotted using GraphPad 8 or SigmaPlot 11(Systat software, Inc.). […] In all TEVC recordings in oocytes, the responses were normalized to current amplitude obtained from that individual cell. […] All data are shown as mean ± SEM. In all experiments N indicates the number of independent experiments, whereas n indicates the number of cells recorded. In each experiment, data underwent normality test prior to statistical assessment. Normally distributed data were assessed for significance by using paired t-test or one-way ANOVA for multiple group comparison and post hoc Tukey test or Dunnett's test. Similarly, in the case of non-normally distributed data significance was assessed by Mann Whitney test or Kruskal–Wallis ANOVA on ranks test followed by Dunn’s multiple comparison post hoc; n.s., non-significant; *p < 0.05; **p < 0.01; ***p < 0.001. […] Leak expression was evaluated by normalizing the maximal current (Imax) of each ER-retained NMDAR composition to Imax of control group (which was recorded in all experiments). Estimation of activation time constant (τ) for potentiated currents by PS, was performed by fitting PS- potentiated currents with a standard single-exponential function, from which we extracted the time constant (τ).

[13] = biological target: Tri-heteromeric GluN2A-wt/GluN2B-wt (Rattus norvegicus, UniProt P35439+Q00959+Q00960, A876H/F846L/G856D/H848F/K857R/M851T/M860L/Q845K/V861L); assay: TEVC in Xenopus oocytes; settings: 5 mM glutamate
Description: as §2, §3
Electrophysiology data were analyzed by Clampfit 11.2 (Molecular Devices, USA), plotted using GraphPad 8 or SigmaPlot 11(Systat software, Inc.). […] In all TEVC recordings in oocytes, the responses were normalized to current amplitude obtained from that individual cell. […] All data are shown as mean ± SEM. In all experiments N indicates the number of independent experiments, whereas n indicates the number of cells recorded. In each experiment, data underwent normality test prior to statistical assessment. Normally distributed data were assessed for significance by using paired t-test or one-way ANOVA for multiple group comparison and post hoc Tukey test or Dunnett's test. Similarly, in the case of non-normally distributed data significance was assessed by Mann Whitney test or Kruskal–Wallis ANOVA on ranks test followed by Dunn’s multiple comparison post hoc; n.s., non-significant; *p < 0.05; **p < 0.01; ***p < 0.001. […] Leak expression was evaluated by normalizing the maximal current (Imax) of each ER-retained NMDAR composition to Imax of control group (which was recorded in all experiments). […]

[14] = biological target: di- or tri-heteromeric NMDA receptors (Rattus norvegicus, UniProt P35439+Q00959+Q00960, A876H/F846L/G856D/H848F/K857R/M851T/M860L/Q845K/V861L); settings: 0.1-10 μM olanzapine, 5 mM glutamate, 100 μM glycine
Description: as §1

[15] = biological target: T6, Purely di-heteromeric GluN2B-G689C (C1/C2) (Rattus norvegicus, UniProt P35439+Q00959+Q00960, A876H/F846L/G689C/G856D/H848F/K857R/M851T/M860L/Q845K/V861L); assay: TEVC in Xenopus oocytes; assay type: cell-based
T6 construct: expressed in transfected cells; host or cells: Xenopus laevis oocytes, mRNA injection
Description: as §1

[16] = biological target: T7, Purely di-heteromeric GluN2B-G689S (C1/C2) (Rattus norvegicus, UniProt P35439+Q00959+Q00960, A876H/F846L/G689S/G856D/H848F/K857R/M851T/M860L/Q845K/V861L); assay: TEVC in Xenopus oocytes; assay type: cell-based
T7 construct: expressed in transfected cells; host or cells: Xenopus laevis oocytes, mRNA injection
Description: as §1

[17] = system: NMDAR-dependent currents in cultured hippocampal neurons (naive or overexpressing GluN2B-wt, GluN2B-G689C, GluN2B-G689S); assay: Whole cell patch clamp of primary cultured hippocampal neurons; assay type: cell-based, rat
Description: Cultures of hippocampal primary neurons were established as previously stated. Briefly, extracted rat neonates (P0) hippocampi were dissociated and plated onto 12 mm poly-D-lysine (Sigma-Aldrich, Cat. #P6407)- treated glass coverslips. Cultures were then maintained in an enriched growth media and grown at 37 °C and 5% CO2. Following five days in-vitro (DIV), growth medium was supplemented with 4 μM cytosine-arabinoside (ARA-C) to suppress glia proliferation. At nine DIV, neurons were co-transfected using the calcium-phosphate method with 2 different plasmids: 0.3 μg DNA of eYFP and 2 μg GluN2B-wt or GluN2B-G689C or GluN2B-G689S. To avoid recordings from cells transfected only with the fluorescent reporter, the ratio between the different plasmids during co-transfection favored the plasmids encoding GluN2B-wt/G689C/G689S. Recordings were performed four to seven days past transfection.
We patched YFP-positive neurons at 13–18 DIV. YFP was excited by X-Cite LED illuminator (Excelitas Technologies). Electrode were made by pulling glass capillaries to resistance of 5–10 MΩ. Electrodes were filled with an intracellular solution containing (in mM): 135 K-gluconate, 10 NaCl, 10 HEPES, 2 MgCl2, 2 Mg^2+-ATP, 1 EGTA, pH adjusted to 7.3 with KOH. Patch-clamp recordings were performed with Axon MultiClamp 700B amplifier and Axon Digidata 1440A acquisition system. In all experiments, recordings were performed using a 10 kHz sampling rate and low pass filter. Neurons were clamped at (-70) mV. […] Cells were recorded for ~ 3 min. For assessing the total NMDAR-dependent current (Imax), neurons were then perfused with extracellular solution (see above) supplemented with 100 μM of NMDA (Alomone labs, Cat #: N-170) for exclusive activation of NMDARs. Potentiation was assessed by perfusing cells with the extracellular solution along with 100 μM NMDA and 100 μM of PS (Cat. #P162) in 0.2% DMSO. […] Cells that didn’t reach steady-state after application of 100 μM NMDA were excluded from analysis. Extent of potentiation by PS was evaluated at steady-state.

[18] = biological target: T8, Purely wt or mixed di-heteromeric receptors containing GluN2B-subunits (Rattus norvegicus, UniProt P35439+Q00959+Q00960, A876H/F846L/G856D/H848F/K857R/M851T/M860L/Q845K/V861L); assay: TEVC in Xenopus oocytes, wt and mixed di-heteromers; assay type: cell-based; settings: 100 µM PS
T8 construct: expressed in transfected cells; host or cells: Xenopus laevis oocytes, mRNA injection
Description: as §1

[19] = system: GluN2C- and GluN2D-containing di-heteromers; settings: cited from earlier work
GABAA receptor = system: GABAA receptor; set-up: method as in PMID 34339523; settings: cited from earlier work

T5 sequence (Q00959 23-1464, other chains not shown): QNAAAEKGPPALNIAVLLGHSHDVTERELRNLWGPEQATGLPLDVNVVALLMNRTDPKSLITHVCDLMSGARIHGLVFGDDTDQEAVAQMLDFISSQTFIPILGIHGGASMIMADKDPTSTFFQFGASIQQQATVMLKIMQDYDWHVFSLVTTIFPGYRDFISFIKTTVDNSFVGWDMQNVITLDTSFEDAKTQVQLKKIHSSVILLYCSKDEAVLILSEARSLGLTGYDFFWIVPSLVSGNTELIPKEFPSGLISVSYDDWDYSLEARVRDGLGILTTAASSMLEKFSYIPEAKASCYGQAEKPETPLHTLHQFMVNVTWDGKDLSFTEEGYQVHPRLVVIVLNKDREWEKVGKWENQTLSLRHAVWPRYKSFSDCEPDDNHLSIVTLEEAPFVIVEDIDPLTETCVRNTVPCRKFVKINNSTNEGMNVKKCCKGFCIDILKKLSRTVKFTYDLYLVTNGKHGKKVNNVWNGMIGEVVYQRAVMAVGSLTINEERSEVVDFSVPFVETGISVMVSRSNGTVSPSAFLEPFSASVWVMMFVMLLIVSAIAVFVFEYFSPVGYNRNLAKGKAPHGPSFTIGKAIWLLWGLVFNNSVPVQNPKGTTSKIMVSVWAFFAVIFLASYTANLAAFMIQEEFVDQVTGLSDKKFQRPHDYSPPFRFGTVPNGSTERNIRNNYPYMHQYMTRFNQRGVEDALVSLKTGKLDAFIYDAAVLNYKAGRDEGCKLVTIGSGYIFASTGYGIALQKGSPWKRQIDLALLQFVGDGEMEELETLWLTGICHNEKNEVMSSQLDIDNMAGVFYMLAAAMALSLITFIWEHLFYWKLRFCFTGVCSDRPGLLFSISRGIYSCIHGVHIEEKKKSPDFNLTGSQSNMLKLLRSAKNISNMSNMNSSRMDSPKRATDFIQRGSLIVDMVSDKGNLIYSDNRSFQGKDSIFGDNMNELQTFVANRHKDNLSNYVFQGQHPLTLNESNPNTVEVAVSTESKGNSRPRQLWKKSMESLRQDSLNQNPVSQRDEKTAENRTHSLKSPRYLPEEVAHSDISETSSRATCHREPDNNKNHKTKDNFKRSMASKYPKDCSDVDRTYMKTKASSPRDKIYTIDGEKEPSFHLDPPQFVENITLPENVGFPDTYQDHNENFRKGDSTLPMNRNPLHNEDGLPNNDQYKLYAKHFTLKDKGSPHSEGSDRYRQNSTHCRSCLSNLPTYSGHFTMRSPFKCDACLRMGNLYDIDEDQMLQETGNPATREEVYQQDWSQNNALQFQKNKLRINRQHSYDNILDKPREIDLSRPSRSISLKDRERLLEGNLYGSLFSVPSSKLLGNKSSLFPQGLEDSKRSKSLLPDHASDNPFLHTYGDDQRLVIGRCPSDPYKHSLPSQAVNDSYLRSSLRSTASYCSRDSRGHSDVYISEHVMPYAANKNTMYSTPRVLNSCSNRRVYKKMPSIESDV
T5 sequence (Q00960+Q00959 fused with the stated changes, other chains not shown): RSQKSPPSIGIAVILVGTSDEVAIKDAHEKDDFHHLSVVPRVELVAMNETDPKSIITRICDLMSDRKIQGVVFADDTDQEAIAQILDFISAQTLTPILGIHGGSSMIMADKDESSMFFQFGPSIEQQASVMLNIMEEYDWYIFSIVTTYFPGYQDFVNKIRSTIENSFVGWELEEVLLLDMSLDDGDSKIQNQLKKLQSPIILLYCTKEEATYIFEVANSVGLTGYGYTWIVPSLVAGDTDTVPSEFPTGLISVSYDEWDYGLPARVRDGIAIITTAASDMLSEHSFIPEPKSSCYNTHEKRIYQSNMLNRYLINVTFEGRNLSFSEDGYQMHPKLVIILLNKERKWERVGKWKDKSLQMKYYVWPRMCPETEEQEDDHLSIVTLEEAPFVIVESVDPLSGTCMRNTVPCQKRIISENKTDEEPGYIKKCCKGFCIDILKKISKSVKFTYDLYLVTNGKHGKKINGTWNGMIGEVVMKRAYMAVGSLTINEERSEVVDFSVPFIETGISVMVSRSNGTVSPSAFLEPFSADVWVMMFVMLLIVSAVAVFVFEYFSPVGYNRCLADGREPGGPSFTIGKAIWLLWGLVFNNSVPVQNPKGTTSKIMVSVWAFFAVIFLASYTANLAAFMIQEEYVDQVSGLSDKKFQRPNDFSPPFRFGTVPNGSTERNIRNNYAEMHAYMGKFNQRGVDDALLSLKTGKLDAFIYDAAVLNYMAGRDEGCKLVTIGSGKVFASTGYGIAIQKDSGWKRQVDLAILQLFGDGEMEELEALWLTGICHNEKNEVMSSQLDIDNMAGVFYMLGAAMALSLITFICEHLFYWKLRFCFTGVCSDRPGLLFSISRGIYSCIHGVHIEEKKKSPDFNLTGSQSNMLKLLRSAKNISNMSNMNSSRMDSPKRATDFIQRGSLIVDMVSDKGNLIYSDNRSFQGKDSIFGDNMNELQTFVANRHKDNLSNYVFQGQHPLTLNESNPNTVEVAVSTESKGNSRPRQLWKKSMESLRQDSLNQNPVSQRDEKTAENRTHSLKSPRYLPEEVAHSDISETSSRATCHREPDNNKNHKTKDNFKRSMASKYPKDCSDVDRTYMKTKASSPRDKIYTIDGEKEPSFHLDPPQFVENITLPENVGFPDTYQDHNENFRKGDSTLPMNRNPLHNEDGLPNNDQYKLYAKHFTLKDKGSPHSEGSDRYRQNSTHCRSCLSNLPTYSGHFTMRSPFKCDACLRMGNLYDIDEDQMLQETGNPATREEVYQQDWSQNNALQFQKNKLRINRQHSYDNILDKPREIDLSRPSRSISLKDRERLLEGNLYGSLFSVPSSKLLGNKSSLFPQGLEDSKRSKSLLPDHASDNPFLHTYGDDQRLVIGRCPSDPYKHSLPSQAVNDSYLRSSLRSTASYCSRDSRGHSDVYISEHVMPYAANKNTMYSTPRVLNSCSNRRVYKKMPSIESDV
T2 sequence (Q00960+Q00959 fused with the stated changes, other chains not shown): as above

In the case of `CC(C(O)c1ccc(O)cc1)N1CCC(Cc2ccccc2)CC1` (stereo not drawn) [ifenprodil], the “expected inhibition by ifenprodil” value (GluN2B di-heteromers) is given as ~ 85%, the “expected inhibition by ifenprodil” value [1] is given as less than 40% and the “expected inhibition by ifenprodil” value [2] is given as less than 10%.
In the case of `CC(C)[C@@H](O)CC[C@@H](C)[C@H]1CC[C@H]2[C@@H]3CC=C4C[C@@H](O)CC[C@]4(C)[C@H]3CC[C@]12C` [24(S)-HC, 24(S)-hydroxycholesterol], the “potentiation by 24(S)-HC” value (all NMDAR-subtypes) is listed as “can potentiate all NMDAR-subtypes alike” and the “effect of 24(S)-HC” value (GABAA receptors) is listed as “no known effect”.
In the case of `C[C@]12N[C@H](Cc3ccccc31)c1ccccc12` [MK-801], the “extrasynaptic fraction (current remaining after MK-801)” value ([3]; neurons overexpressing GluN2B-wt) is listed as 38%, the “fraction of remaining current after MK-801” value ([3]; neurons overexpressing the variants) is listed as ~ 50% and the “block by MK-801” value [4] is listed as “efficiently and potently blocks both variant receptors”.
With `NCCCNCCCCNCCCN` [Spermine, spermine] the “Spermine Potentiation (Fold change)” value ([5]; 200 μM spermine, pH 7.3) was 1.61 ± 0.03 (N = 2, n = 24) Fold change, the “Spermine Potentiation (Fold change)” value ([6]; 200 μM spermine, pH 7.3) was 1.97 ± 0.56 (N = 3, n = 25) Fold change and the “Spermine Potentiation (Fold change)” value ([7]; 200 μM spermine, pH 7.3) was 0.70 ± 0.03 n.s (N = 1, n = 10) Fold change. For the same compound, the “Spermine Potentiation (Fold change)” value ([8]; 200 μM spermine, pH 7.3) was 0.75 ± 0.02 n.s (N = 2, n = 19) Fold change, the response to spermine ([9]; 200 μM spermine, pH 7.3, 5 mM glutamate) was “non-responsive” and the “inhibition by spermine (fold)” value ([9]; all tri-heteromers examined, 200 μM spermine) was 0.75 fold. For the same compound, the response to spermine [10] was “poorly responsive”, the response to spermine [11] was “inhibited” and the “Spermine Potentiation (Fold change)” value ([12]; 200 μM spermine, pH 7.3) was 1.78 ± 0.51 (N = 2, n = 20) Fold change. The “Spermine Potentiation (Fold change)” value ([13]; 200 μM spermine, pH 7.3) was 0.73 ± 0.02 (N = 2, n = 12) Fold change.
For `Cc1cc2c(s1)Nc1ccccc1N=C2N1CCN(C)CC1` [olanzapine], the “direct effect of olanzapine on NMDAR currents” value [14] was “no evidence for any direct effect”.
For pregnenolone-sulfate [PS], the “PS Potentiation (Fold change)” value ([5]; 100 μM PS) was 2.99 ± 0.10 n.s (N = 3, n = 20) Fold change, the “potentiation by PS (fold increase)” value ([15]; 100 µM PS) was “~ fourfold” and the “PS Potentiation (Fold change)” value ([15]; 100 μM PS, 5 mM glutamate) was 3.96 ± 0.14 (N = 3, n = 18) Fold change. For the same compound, the “potentiation by PS (fold increase)” value ([16]; 100 µM PS) was “~ fivefold”, the “PS Potentiation (Fold change)” value ([16]; 100 μM PS, 5 mM glutamate) was 4.68 ± 0.19 (N = 3, n = 23) Fold change and the “PS Potentiation (Fold change)” value ([6]; 100 μM PS) was 3.03 ± 0.13 (N = 3, n = 16) Fold change. The “PS Potentiation (Fold change)” value ([7]; 100 μM PS) was 2.12 ± 0.10 n.s (N = 3, n = 13) Fold change, the “PS Potentiation (Fold change)” value ([8]; 100 μM PS) was 2.02 ± 0.06 n.s (N = 2, n = 13) Fold change and the “effect of PS on Imax” value ([17]; 100 μM PS with 100 μM NMDA, 50 μM glycine, all groups) was “increased Imax of neurons from all groups”. The “effect of PS on NMDAR-current without added NMDA” value ([17]; 100 μM PS, no NMDA added) was “enhanced the overall NMDAR-current”, the “extent of potentiation (fold) by PS” value ([17]; 100 μM PS, neurons overexpressing the variants vs naive or GluN2B-wt) was “significantly larger” and the “potentiation by PS (fold increase)” value ([9]; 100 µM PS, all tri-heteromeric types, wt or GluN2B variants) was “~ twofold”. The “potentiation by PS (fold increase)” value [18] was “~ threefold”, the “mode of action of PS” value [19] was “negative allosteric modulator (NAM)” and the “mode of action of PS” value (GABAA receptor) was “negative allosteric modulator (NAM)”. The “PS Potentiation (Fold change)” value ([12]; 100 μM PS) was 2.78 ± 0.15 n.s. (N = 3, n = 13) Fold change and the “PS Potentiation (Fold change)” value ([13]; 100 μM PS) was 1.87 ± 0.04 (N = 4, n = 30) Fold change.
